Laboratory results reported in ChEMBL document CHEMBL1136202, “Imidazo[1,2-a]pyridines: a potent and selective class of cyclin-dependent kinase inhibitors identified through structure-based hybridisation” (Bioorg Med Chem Lett, 2003).

Tests used:
[1] = target: Cyclin-dependent kinase 2 (Homo sapiens, UniProt P24941); assay: Inhibition of Cyclin-dependent kinase 2
[2] = target: Cyclin-dependent kinase 4 (Homo sapiens, UniProt P11802); assay: Inhibition of Cyclin-dependent kinase 4
Cyclin-dependent kinase 4, sequence (P11802 whole entry): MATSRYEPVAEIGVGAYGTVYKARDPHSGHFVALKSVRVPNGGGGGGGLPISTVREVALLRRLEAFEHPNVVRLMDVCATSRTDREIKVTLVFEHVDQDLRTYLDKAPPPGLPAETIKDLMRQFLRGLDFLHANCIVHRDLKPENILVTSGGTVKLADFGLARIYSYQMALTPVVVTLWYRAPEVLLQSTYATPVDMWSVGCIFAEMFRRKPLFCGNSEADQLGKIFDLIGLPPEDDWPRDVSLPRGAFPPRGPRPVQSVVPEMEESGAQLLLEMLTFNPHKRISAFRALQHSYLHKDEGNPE

| SMILES | IC50 [1] [µM] | IC50 [2] [µM] |
| --- | --- | --- |
| Cc1nc2ccccn2c1-c1ccnc(N)n1 | 4 | 8 |
| CN(C)CC(O)COc1ccc(Nc2nccc(Nc3ccccc3)n2)cc1 (stereo unspecified) | 32 |  |
| Cc1nc2ccccn2c1-c1ccnc(NC(=O)C(F)(F)F)n1 | 95 | 40 |
| Cc1nc2ccccn2c1-c1ccnc(Nc2ccc(OCC(O)CN(C)C)cc2)n1 (stereo unspecified) |  | 0.15 |
| Cc1ccc(F)c(Nc2ccnc(Nc3ccc(S(N)(=O)=O)cc3)n2)c1 | 0.006 | 2.7 |
| Cc1nc2ccccn2c1-c1ccnc(NC(=O)Nc2ccccc2)n1 | > 10 | > 10 |
| Cc1nc2ccccn2c1-c1ccnc(Nc2ccccc2)n1 | 0.036 | 3.6 |
| Cc1nc2ccccn2c1-c1ccnc(Nc2ccc(S(N)(=O)=O)cc2)n1 | < 0.003 | 2.5 |
| CC(=O)Nc1nccc(-c2c(C)nc3ccccn23)n1 | 2.9 | 8.9 |
